TGI data for 8 compounds are collected here from PubChem BioAssay (NCI).

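48-hour exposure; five concentrations; linearly interpolated endpoints. TGI: total growth inhibition.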

Assay in all cases: NCI-60 cell line screen, 48 h
Experiment [1] concerns DLD-1 colon.
Experiment [2] deals with DMS 114 small cell lung.
The subject of experiment [3] is HOP-18 NSCLC.
Experiment [4] deals with M19-MEL melanoma.
Experiment [5] has as its system RXF-631 renal.
Experiment [6] deals with SNB-78 CNS.
The test system of experiment [7] is XF 498 CNS.
The test system of experiment [8] is BT-549 breast.
The subject of experiment [9] is MDA-N.

`CC1NOC(=O)C1N=Nc1ccccc1Cl` (stereo not given): the TGI in [1] is above 100 µM; in [2], above 100 µM; in experiment [3], above 100 µM; in experiment [4], 60.4 µM; in experiment [5] it was above 100 µM; in experiment [6] it was above 100 µM. In experiment [7], the TGI is above 100 µM.

With `CCOC(CN=c1nc(N(C)C)ss1)OCC`, the TGI was 55.5 µM in experiment [8]; above 50.8 µM in experiment [1]; 32.9 µM in [2]; above 100 µM in experiment [3]; 19.1 µM in experiment [4]; 24.8 µM in experiment [9]. Also, the results for the TGI in experiment [5], in [6] and in experiment [7] were 32.5 µM, 51.5 µM and 47.1 µM, respectively.

Regarding `CCOC(=O)C(C)c1cc(C2(C)OCCO2)c(C)o1` (stereo not given), the TGI in experiment [1], in experiment [2], in experiment [3], in experiment [4], in experiment [5] and in experiment [6] was above 100 µM each time. In [7], the TGI is above 100 µM.

In the case of `O=C(O)C12C3CCCC1C2CC3` (stereo not given), the TGI in experiment [1], in [2], in [3], in [4], in experiment [5] and in experiment [6] was above 100 µM in each case. This compound also yielded a TGI in [7] above 100 µM.

As to `O=[N+]([O-])C1C2C=CC(C2)[C@H]1c1ccccc1Cl` (stereo not given in full), the TGI in experiment [1], in experiment [3], in experiment [5], in [6] and in experiment [7] was above 100 µM in each case.

As for `CCOC(=O)C1C(=O)c2ccccc2CN1Cc1ccccc1` (stereo not given), the TGI in [1], in [2], in [3], in experiment [4], in [5] and in experiment [6] was above 100 µM throughout. In addition, in [7], the TGI is above 100 µM.

On to `CCOP(=O)(OCC)/C(C#N)=C/c1ccco1`, for which the TGI in experiment [1], in experiment [2], in experiment [3], in experiment [4], in experiment [5] and in experiment [6] was above 100 µM in each case. Besides, the TGI in [7] is above 100 µM.

`c1ccc(N=C2c3ccccc3C3=NCCCN32)cc1`: the TGI in experiment [1], in experiment [2], in experiment [4], in [5], in experiment [6] and in experiment [7] was above 100 µM in each case.
